Test results taken from patent US4349625A, “Method for assaying fatty acids” (Mitsubishi Chemical Industries Limited, priority 1979, dated 1982).
Where a name gives a salt, the structure may show the parent alone.

Legend:
Type in all cases: biochemical
[1] = biological target: T1, FFA-albumin linkage (human serum albumin) (Homo sapiens, UniProt P02768); experiment: Example 1: rate of ACS-coupled NADH reaction (Procedure A) on FFA sample containing albumin, with dissociating agent; details: sample 0.5 mM FFA + 2.5% human serum albumin, 37° C.
Protocol: 100 mM Tris-HCl buffer pH 8.0 containing 2 mg/ml of Triton X-100, 2 mM 2Na-EDTA (disodium ethylenediaminetetraacetate) and 10 mM MgCl2.
40 mg of ATP disodium salt, 50 mg of potassium phosphoenolpyruvate, 20 U of myokinase (available from Boehringer Mannheim (B.M.), grade I), 15 U of pyruvate kinase (available from B.M., grade II) and 15 U of lactate dehydrogenase (available from B.M., derived from rabbit muscle) are dissolved in 1 ml of the above-mentioned buffer.
In 1 ml of the above buffer, 3 mg of NADH disodium salt is dissolved.
An ACS solution in 50% glycerine in a concentration of about 4 U/ml as prepared in Preparation 1 which is diluted with three volumes of water is used.
Aqueous 0.5 mM potassium oleate solution is used. […] The content of the microcell was then preheated at 37° C. in a spectrophotometer (Shimadzu, model UV-200) equipped with a thermostated cell holder. Thereafter 20 μl of the CoA solution was added to initiate the reaction and decrease in optical density (OD) at 340 nm was recorded with the elapse of time. From the data, the value of maximum ΔOD/min was calculated.

[2] = biological target: T2, FFA-albumin linkage in human serum (Homo sapiens, UniProt P02768); experiment: Example 2: enzymatic assay of FFA in human serum samples (Procedure A) with dissociating agent
T2 construct: were replaced by human serum samples; from tissue; host or cells: human serum
Protocol: The reaction was continued for 15 minutes at 37° C., and the OD340 values were read just before the addition of CoA solution and 15 minutes later when the reaction was almost complete and decrease in OD ceased. As a sample blank distilled water was substituted for the ACS solution in the reaction systems and the reaction and measurement of OD were carried out in the same way.
The concentration of FFA in a serum sample was calculated by the following equation: [formula] where:
A=0D340 of the reaction system just before the addition of CoA solution;
B=OD340 of the reaction system after 15 minutes
C=OD340 just before the addition of CoA solution in the blank run, and
D=OD340 after 15 minutes in the blank run.

[3] = biological target: T1, FFA-albumin linkage (human serum albumin); experiment: Example 3: ACS/ACO colorimetric FFA assay (Procedure B) on potassium oleate plus human serum albumin; details: 0.5% in assay system; sample 280 μM potassium oleate + 2.5% human serum albumin; without agent -0.016
Protocol: 100 mM Tris-HCl buffer pH 8.0 containing 3.2 mM Triton X-100, 2 mM disodium ethylenediaminetetraacetate and a dissociating agent such as a benzenesulfonate.
100 mM Tris-HCl buffer pH 8.0 containing 60 mM magnesium chloride.
A solution of 80 mg of ATP disodium salt and 20 U of myokinase dissolved in 40 ml of Buffer (1).
Prepared by adding 5 ml of the ACS solution in 50% glycerine with a concentration of about 4 U/ml as prepared in Preparation 1 to a solution of 25 mg of CoA in 5 ml of Buffer (2).
A suspension of ACO in 50% saturated ammonium sulfate having a concentration of about 50 U/ml and prepared as described in Preparation 2. […]
A mixture of 100 μl of a sample containing 280 μM potassium oleate and 2.5% human serum albumin, 400 μl of Enzyme Solution (1) and 100 μl of Enzyme Solution (2) was kept at 37° C. for 15 minutes. […] The reaction solution was placed into a cell having a thickness of 10 mm and the value (A) for optical density at 535 nm was measured. As a control, the sample was replaced by the same volume of water and the optical density value (B) was measured in the same way.
An aqueous potassium oleate solution which is free from albumin was separately prepared as a standard solution. This solution was substituted for the sample and the optical density value (C) was also measured in the same way. […]

[4] = human serum C, solution of dissociating agent 20 mM, extraction method 560
[5] = dissociating agent 25 mM, control with albumin 0.019, without albumin 0.076

T1 sequence (P02768 25-609): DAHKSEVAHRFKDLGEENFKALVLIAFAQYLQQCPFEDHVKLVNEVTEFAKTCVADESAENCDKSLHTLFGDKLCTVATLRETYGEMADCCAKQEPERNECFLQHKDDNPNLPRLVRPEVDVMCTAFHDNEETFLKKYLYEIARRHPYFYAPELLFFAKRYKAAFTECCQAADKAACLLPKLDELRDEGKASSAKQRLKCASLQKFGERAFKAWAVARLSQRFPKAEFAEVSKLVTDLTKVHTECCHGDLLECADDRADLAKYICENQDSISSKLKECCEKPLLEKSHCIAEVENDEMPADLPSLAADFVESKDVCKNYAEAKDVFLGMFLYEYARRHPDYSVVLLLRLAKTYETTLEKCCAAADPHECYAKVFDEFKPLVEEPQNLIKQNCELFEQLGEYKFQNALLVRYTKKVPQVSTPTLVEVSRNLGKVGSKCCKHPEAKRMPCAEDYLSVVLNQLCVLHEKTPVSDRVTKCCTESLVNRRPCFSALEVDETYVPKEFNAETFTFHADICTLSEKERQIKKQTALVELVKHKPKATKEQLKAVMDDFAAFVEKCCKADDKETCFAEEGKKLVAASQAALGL
T2 sequence (P02768 25-609): as above

O=C(O)CCCCCCCCCCCCC(=O)O [Dipotassium 1,12-dodecamethylenedicarboxylate]
maximum ΔOD340/min ([1]; dissociating agent 2.5 mM): 0.041 ΔOD340/min
maximum ΔOD340/min ([1]; dissociating agent 10 mM): 0.048 ΔOD340/min
FFA assayed [2, 4]: 575 µM

O=C(O)CCCCCCCCCCCCCCC(=O)O [Dipotassium 1,14-tetradecamethylenedicarboxylate]
maximum ΔOD340/min ([1]; dissociating agent 2.5 mM): 0.045 ΔOD340/min
FFA assayed ([2]; human serum B, solution of dissociating agent 10 mM, extraction method 370): 340 µM
FFA assayed ([2]; human serum C, solution of dissociating agent 10 mM, extraction method 560): 570 µM

O=C(O)CCCCCCCCCCCCCCCCC(=O)O [Dipotassium 1,16-hexadecamethylenedicarboxylate]
maximum ΔOD340/min ([1]; dissociating agent 2.5 mM): 0.032 ΔOD340/min

O=C(O)CCCCCCCCC(=O)O [Potassium salt of 1,8-octamethylenedicarboxylic acid]
maximum ΔOD340/min [1, 5]: 0.026 ΔOD340/min

O=C(O)CCCCCCCCCCCC(=O)O [Potassium salt of 1,11-undecamethylenedicarboxylic acid]
maximum ΔOD340/min ([1]; dissociating agent 5 mM): 0.035 ΔOD340/min
maximum ΔOD340/min ([1]; dissociating agent 10 mM): 0.040 ΔOD340/min
maximum ΔOD340/min ([1]; dissociating agent 20 mM): 0.045 ΔOD340/min
FFA assayed ([2]; human serum A, solution of dissociating agent 20 mM, extraction method 1475): 1500 µM
FFA assayed ([2]; human serum B, solution of dissociating agent 20 mM, extraction method 370): 340 µM
FFA assayed [2, 4]: 570 µM

O=C(O)CCCCCCCCCCC(=O)O [Potassium salt of decamethylenedicarboxylic acid]
maximum ΔOD340/min ([1]; dissociating agent 5 mM): 0.028 ΔOD340/min
maximum ΔOD340/min ([1]; dissociating agent 10 mM): 0.031 ΔOD340/min
maximum ΔOD340/min ([1]; dissociating agent 20 mM): 0.034 ΔOD340/min
FFA assayed ([2]; human serum B, solution of dissociating agent 50 mM, extraction method 370): 335 µM

O=C(O)CCCCCCC(=O)O [Potassium salt of hexamethylenedicarboxylic acid, reference compound]
maximum ΔOD340/min [1, 5]: 0.015 ΔOD340/min

O=C(O)CCCCC(=O)O [Potassium salt of tetramethylenedicarboxylic acid, reference compound]
maximum ΔOD340/min [1, 5]: 0.015 ΔOD340/min

CCCCCc1ccc(S(=O)(=O)[O-])cc1.[Na+] [Sodium p-n-amylbenzenesulfonate]
maximum ΔOD340/min ([1]; dissociating agent 50 mM): 0.030 ΔOD340/min

Cc1ccc(S(=O)(=O)O)cc1 [Sodium p-toluenesulfonate]
ΔOD535 [3]: 0.078
maximum ΔOD340/min ([1]; dissociating agent 100 mM): 0.030 ΔOD340/min
FFA assayed ([2]; human serum C, solution of dissociating agent 1000 mM, extraction method 560): 585 µM
